Laboratory results from patent publication US20220380378A1 (ESSA Pharma, Inc., priority 2021, published 2022).

Target: T1, androgen receptor (AR) (Homo sapiens, UniProt P10275, T878A)
T1 sequence (P10275 1-920 T878A): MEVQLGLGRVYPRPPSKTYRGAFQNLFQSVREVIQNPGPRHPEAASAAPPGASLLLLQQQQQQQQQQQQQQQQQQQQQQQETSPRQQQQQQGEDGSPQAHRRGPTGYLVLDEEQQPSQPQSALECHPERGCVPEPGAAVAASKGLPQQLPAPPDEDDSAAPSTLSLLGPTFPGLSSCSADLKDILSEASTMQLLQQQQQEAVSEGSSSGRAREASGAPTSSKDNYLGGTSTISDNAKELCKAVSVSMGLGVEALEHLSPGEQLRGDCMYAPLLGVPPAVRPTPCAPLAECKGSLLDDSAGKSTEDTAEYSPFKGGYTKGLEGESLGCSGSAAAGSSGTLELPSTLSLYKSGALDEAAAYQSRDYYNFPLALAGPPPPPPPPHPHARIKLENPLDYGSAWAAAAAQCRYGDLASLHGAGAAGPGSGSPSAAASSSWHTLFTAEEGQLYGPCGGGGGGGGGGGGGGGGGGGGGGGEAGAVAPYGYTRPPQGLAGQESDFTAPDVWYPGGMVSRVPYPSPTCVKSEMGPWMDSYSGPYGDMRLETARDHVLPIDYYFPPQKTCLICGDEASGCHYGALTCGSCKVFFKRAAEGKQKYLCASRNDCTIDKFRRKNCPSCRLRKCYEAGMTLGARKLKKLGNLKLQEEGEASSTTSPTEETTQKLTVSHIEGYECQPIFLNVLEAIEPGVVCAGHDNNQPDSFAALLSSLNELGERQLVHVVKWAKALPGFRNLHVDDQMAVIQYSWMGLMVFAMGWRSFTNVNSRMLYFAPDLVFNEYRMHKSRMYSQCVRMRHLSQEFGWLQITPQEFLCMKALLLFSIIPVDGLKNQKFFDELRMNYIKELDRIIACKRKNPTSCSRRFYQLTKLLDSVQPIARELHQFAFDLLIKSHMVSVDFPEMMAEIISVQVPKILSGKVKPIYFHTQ
Experiment: Androgen-induced PSA (6.1 kb)-luciferase reporter assay in LNCaP cells (R1881 1 nM)
Type: cell-based
Parameters: endogenous in cells; host or cells: LNCaP
Settings: 24 h, read-out: PSA-Luc IC50 Range
Procedure, shortened: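 LNCaP cells transiently transfected with PSA (6.1 kb)-luciferase for 24 h, pretreated 1 h with compound or DMSO, then stimulated with 1 nM R1881 for 24 h. Firefly luciferase in lysates normalized to protein content; IC50 relative to R1881-induced vehicle activity.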

IC50 | SMILES
0.5 to 2 µM | CC(C)(c1ccc(-c2c[nH]c3nc(NS(C)(=O)=O)ncc23)cc1)c1cc(Cl)c(OCCCl)c(C#N)c1 [Compound A198]
> 2 µM | CC(c1cc(Cl)c(OCCCl)c(C#N)c1)n1ccc(-c2ccc3nc(NS(C)(=O)=O)ncc3c2)n1 (centres unmarked) [Compound A142]
0.5 to 2 µM | CS(=O)(=O)N1CC(F)(COc2ccc3c(ccn3-c3cc(Cl)c(OCCCl)c(C#N)c3)c2)C1 [Compound A137]
> 2 µM | CC(C)(c1ccc(OCc2ccnc(NS(C)(=O)=O)n2)cc1)c1cnc(N2CCCCC2)c(Cl)c1 [Compound A105]
0.5 to 2 µM | C[C@H](Oc1ccc(C(C)(C)c2cc(Cl)c(OCCCl)c(C#N)c2)cc1)C12CC(NS(C)(=O)=O)(C1)C2 [Compound A265]
> 2 µM | CS(=O)(=O)Nc1nccc(COc2ccc3c(c2)CCN3c2cc(Cl)c(OCCCl)c(C#N)c2)n1 [Compound A30, N-(4-(((1-(3-chloro-4-(2-chloroethoxy)-5-cyanophenyl)indolin-5-yl)oxy)methyl)pyrimidin-2-yl)methanesulfonamide]
> 2 µM | CC(C)(c1ccc(OCc2ccnc(NS(C)(=O)=O)n2)cc1)c1cc(F)c(N2CC(CO)C2)c(C#N)c1 [Compound A253]
0.5 to 2 µM | CC(C)(c1ccc(OCc2ccnc(NS(C)(=O)=O)n2)cc1)c1cc(F)c(N2CCCCC2)c(C#N)c1 [Compound A261]
0.5 to 2 µM | CC(C)(c1ccc(OCC23CCN(S(C)(=O)=O)C(C2)C3)cc1)c1cc(Cl)c(OCCCl)c(C#N)c1 [Compound A284]
0.5 to 2 µM | CS(=O)(=O)NC12CC(NCc3ccc4c(ccn4-c4cc(Cl)c(OCCCl)c(C#N)c4)c3)(C1)C2 [Compound A145]
0.5 to 2 µM | CC(C)(c1ccc(OCC23CCC(NS(C)(=O)=O)(CC2)CC3)cc1)c1cc(Cl)c(OCCCl)c(C#N)c1 [Compound A273]
> 2 µM | CC(C)(c1ccc(-c2c[nH]c3c(NS(C)(=O)=O)ncnc23)cc1)c1cc(Cl)c(OCCCl)c(C#N)c1 [Compound A211]
0.5 to 2 µM | CC(C)(c1ccc(-c2ccc3c(NS(C)(=O)=O)nccc3n2)cc1)c1cc(Cl)c(OCCCl)c(C#N)c1 [Compound A278]
> 2 µM | CS(=O)(=O)Nc1cnn(CCc2ccc3c(ccn3-c3cc(Cl)c(OCCCl)c(C#N)c3)c2)c1 [Compound A84]
> 2 µM | CS(=O)(=O)Nc1nccc(COc2ccc(-n3ccc4c(Cl)c(OCCCl)c(C#N)cc43)cc2)n1 [Compound A26]
> 2 µM | CC(C)(c1ccc(-c2ccc3nc(NS(C)(=O)=O)nnc3c2)cc1)c1cc(Cl)c(OCCCl)c(C#N)c1 [Compound A108]
0.5 to 2 µM | Cn1nc(NS(C)(=O)=O)cc1COc1ccc(C(C)(C)c2cc(Cl)c(OCCCl)c(C#N)c2)cc1 [Compound A93]
> 2 µM | CS(=O)(=O)N1CCC[C@@H](COc2ccc3c(ccn3-c3cc(Cl)c(OCCCl)c(C#N)c3)c2)C1 [Compound A204]
> 2 µM | CS(=O)(=O)N1CCO[C@@H](COc2ccc3c(ccn3-c3cc(Cl)c(OCCCl)c(C#N)c3)c2)C1 [Compound A205]
0.5 to 2 µM | CC(C)(c1ccc(OCc2ccnc(NS(C)(=O)=O)n2)cc1)c1cc(Cl)c(N2CCOCC2)c(C#N)c1 [Compound A283]
> 2 µM | Cn1nc(-c2cc(Cl)c(OCCCl)c(C#N)c2)c2ccc(OCc3ccnc(NS(C)(=O)=O)n3)cc21 [Compound A77]
> 2 µM | CS(=O)(=O)NCC1CCN1CCc1ccc2c(ccn2-c2cc(Cl)c(OCCCl)c(C#N)c2)c1 (centres unmarked) [Compound A248]
> 2 µM | CS(=O)(=O)Nc1ccn(CCc2ccc3c(ccn3-c3cc(Cl)c(OCCCl)c(C#N)c3)c2)c(=O)c1 [Compound A81]
> 2 µM | CS(=O)(=O)Nc1ncc(Cn2cc3c(-c4cc(Cl)c(OCCCl)c(C#N)c4)cccc3n2)cn1 [Compound A161]
0.5 to 2 µM | CS(=O)(=O)n1cc(COc2ccc3c(ccn3-c3cc(Cl)c(OCCCl)c(C#N)c3)c2)cn1 [Compound A52]
0.5 to 2 µM | CC(C)(c1ccc(OCc2ccnc(NS(C)(=O)=O)n2)c(Cl)c1)c1cc(Cl)c(OCCCl)c(C#N)c1 [Compound A102]
> 2 µM | CS(=O)(=O)Nc1ncc(COc2ccc3c(ccn3-c3cc(Cl)c(OCCCl)c(C#N)c3)c2)c(N)n1 [Compound A10]

IC50 | SMILES
0.5 to 2 µM | CC(C)(c1ccc(-c2cnc3c(c2)CCC(NS(C)(=O)=O)C3)cc1)c1cc(Cl)c(OCCCl)c(C#N)c1 (centres unmarked) [Compound A214]
0.5 to 2 µM | CC(C)(c1ccc(-c2ccc3nc(NS(C)(=O)=O)nc(N4CCOCC4)c3c2)cc1)c1cc(Cl)c(OCCCl)c(C#N)c1 [Compound A196]
0.5 to 2 µM | CC(C)(c1ccc(OCC23CC(C2)N(S(C)(=O)=O)C3)cc1)c1cc(Cl)c(OCCCl)c(C#N)c1 [Compound A285]
> 2 µM | CC1(NS(C)(=O)=O)CCN(Cc2ccc3c(ccn3-c3cc(Cl)c(OCCCl)c(C#N)c3)c2)CC1 [Compound A238]
0.5 to 2 µM | COc1c(Cl)cc(C2CCc3cc(-c4ccc5nc(NS(C)(=O)=O)cnc5c4)ccc32)cc1C#N (centres unmarked) [Compound A276]
0.5 to 2 µM | CS(=O)(=O)N[C@H]1CC[C@@H](Oc2ccc3c(ccn3-c3cc(Cl)c(OCCCl)c(C#N)c3)c2)C1 [Compound A226]
0.5 to 2 µM | CS(=O)(=O)NC12CC(CNc3ccc4c(ccn4-c4cc(Cl)c(OCCCl)c(C#N)c4)c3)(C1)C2 [Compound A146]
0.5 to 2 µM | CC(C)(c1ccc(OCC23CCC(NS(C)(=O)=O)(CC2)C3)cc1)c1cc(Cl)c(OCCCl)c(C#N)c1 [Compound A272]
0.5 to 2 µM | CC(C)(c1ccc(OCc2ccnc(NS(C)(=O)=O)n2)cc1)c1cc(Cl)c(OCCCCl)c(C#N)c1 [Compound A181]
> 2 µM | CS(=O)(=O)NCC1CCN(Cc2ccc3c(ccn3-c3cc(Cl)c(OCCCl)c(C#N)c3)c2)CC1 [Compound A236]
> 2 µM | CS(=O)(=O)N1CCC12CN(CCc1ccc3c(ccn3-c3cc(Cl)c(OCCCl)c(C#N)c3)c1)C2 [Compound A249]
> 2 µM | CS(=O)(=O)Nc1ncc(Cn2cc3ccc(-c4cc(Cl)c(OCCCl)c(C#N)c4)cc3n2)cn1 [Compound A160]
> 2 µM | CS(=O)(=O)Nc1nccc(COc2ccc3c(c2)C(c2cc(Cl)c(OCCCl)c(C#N)c2)CC3)n1 (centres unmarked) [Compound A31, N-(4-(((3-(3-chloro-4-(2-chloroethoxy)-5-cyanophenyl)-2,3-dihydro-1H-inden-5-yl)oxy)methyl)pyrimidin-2-yl)methanesulfonamide]
> 2 µM | CC(C)COc1c(Cl)cc(-n2ccc3cc(OCc4ccnc(NS(C)(=O)=O)n4)ccc32)cc1C#N [Compound A71]
0.5 to 2 µM | CS(=O)(=O)Nc1ncc(COc2ccc3c(ccn3-c3cc(Cl)c(OCCCl)c(C#N)c3)c2)cn1 [Compound A29, N-(5-(((1-(3-chloro-4-(2-chloroethoxy)-5-cyanophenyl)-1H-indol-5-yl)oxy)methyl)pyrimidin-2-yl)methanesulfonamide]
0.5 to 2 µM | Cc1nc(NS(C)(=O)=O)ncc1COc1ccc(C(C)(C)c2cc(Cl)c(OCCCl)c(C#N)c2)cc1 [Compound A91]
< 0.5 µM | CC(C)(c1ccc(OCc2ccnc(NS(C)(=O)=O)n2)cc1)c1cc(F)c(N2CC(O)C2)c(C#N)c1 [Compound A259]
0.5 to 2 µM | CS(=O)(=O)Nc1nccc(COc2ccc3c(c2)OCCN3c2cc(Cl)c(OCCCl)c(C#N)c2)n1 [Compound A28, N-(4-(((4-(3-chloro-4-(2-chloroethoxy)-5-cyanophenyl)-3,4-dihydro-2H-benzo[b][1,4]oxazin-7-yl)oxy)methyl)pyrimidin-2-yl)methanesulfonamide]
> 2 µM | CC(C)(c1ccc(-c2cnc3nc(NS(C)(=O)=O)oc3c2)cc1)c1cc(Cl)c(OCCCl)c(C#N)c1 [Compound A257]
0.5 to 2 µM | CS(=O)(=O)Nc1nccc(COc2ccc(-n3ccc4c(C#N)c(OCCCl)c(Cl)cc43)cc2)n1 [Compound A27]
0.5 to 2 µM | CS(=O)(=O)N1CCN(CCc2ccc3c(ccn3-c3cc(Cl)c(OCCCl)c(C#N)c3)c2)CC1 [Compound A124]
0.5 to 2 µM | CS(=O)(=O)N[C@@H]1CC[C@H](Oc2ccc3c(ccn3-c3cc(Cl)c(OCCCl)c(C#N)c3)c2)C1 [Compound A233]
0.5 to 2 µM | CC(C)(c1ccc(OCc2ccnc(NS(C)(=O)=O)n2)cc1)c1cc(C#N)c2ccc(Cl)cc2c1 [Compound A25]
< 0.5 µM | CC(=O)Nc1cnc(COc2ccc(C(C)(C)c3cc(Cl)c(OCCCl)c(C#N)c3)cc2)c(NS(C)(=O)=O)n1 [Compound A76]
0.5 to 2 µM | CC(C)(c1ccc(OCc2cncc(NS(C)(=O)=O)c2)cc1)c1cc(Cl)c(OCCCl)c(C#N)c1 [Compound A49]
> 2 µM | CC(CO)(c1ccc(OCc2ccnc(NS(C)(=O)=O)n2)cc1)c1cc(Cl)c(OCCCl)c(C#N)c1 (centres unmarked) [Compound A89]
